From patent US9895357B2, “Compositions, methods and kits for reducing lipid levels” (NuSirt Sciences, Inc., priority 2013, dated 2018)

Legend:
[1] = oral dosing of about 3,000 mg; cited from earlier work
Sirt1 [2] = tested on: Sirt1
Protocol: C2C12 mouse myoblasts (American Type Culture Collection) were plated at a density of 8000 cells/cm^2 (10 cm^2 dish) and grown in Dulbecco's modified eagle's medium (DMEM) containing 10% fetal bovine serum (FBS), and antibiotics (growth medium) at 37° C. in 5% CO2. For differentiation of C2C12 cells, cells were grown to 100% confluence, transferred to differentiation medium (DMEM with 2% horse serum and 1% penicillin-streptomycin), and fed with fresh differentiation medium every day until myotubes were fully formed (3 days).
(§1) Total 35 μg of protein from the cell lysate was resolved on 10% Tris/HCL polyacrylamide gels (Criterion precast gel, Bio-Rad Laboratories, Hercules, Calif.), transferred to PVDF membranes, incubated in blocking buffer (3% BSA in TBS), incubated with primary antibody, washed and incubated with secondary horseradish peroxidase-conjugated antibody.

AMPK [3] = tested on: AMPK
Protocol: 3T3-L1 preadipocytes (American Type Culture Collection) were plated at a density of 8000 cells/cm2 (10 cm2 dish) and grown in Dulbecco's modified eagle's medium (DMEM) containing 10% fetal bovine serum (FBS), and antibiotics (growth medium) at 37° C. in 5% CO2. […] Preadipocytes were maintained in this differentiation medium for 3 days and subsequently cultured in growth medium. Cultures were re-fed every 2-3 days to allow >90% cells to reach fully differentiation before conducting chemical treatment.
as §1, with “Western blotting was performed with antibodies against AMPK and Phospho-AMPKα (Thr172) obtained from Cell Signaling (Danvers, Mass.). […] Total” for “Total”, “30” for “35”, “antibody (P-AMPK),” for “antibody,”

[4] = tested on: LDL receptor knockout (LDLRKO) mice; settings: NA alone 10 g/kg diet = group (e); NA 250 mg + Leu 24 g/kg diet; groups (a)-(d) as
Protocol: All chemicals are purchased from Sigma.
The serum/plasma levels of triglyceride, cholesterol, LDL and HDL are measured. Cutaneous vasodilation is measured by laser-Doppler flowmeter.

[5] = tested on: Patients pre-diagnosed with hyperlipidemia; settings: NA alone 3000 mg = group (e); NA 50 mg + Leu 1135 mg; groups (a)-(d) as
Protocol: Patients that are pre-diagnosed with hyperlipidemia are admitted for the randomized and double blind study. […] The treatments are administered orally twice a day, for 60 days continuously.
Blood samples of the patients in all groups are obtained from at day 0, 30 and 60 after the administration. The serum/plasma levels of triglyceride, cholesterol, LDL and HDL are measured. Cutaneous vasodilation is measured by laser-Doppler flowmeter and the discomfort level described by the patients.

[6] = tested on: LDL receptor knockout (LDLRKO) mice; test: Example 7: plasma total cholesterol, cholesterol esters and triglycerides in LDLRKO mice on western diet; type: in vivo; settings: four weeks
Protocol: (§2) The mice were provided free access to an atherogenic western diet (WD) containing 0.21% cholesterol (by weight) and 40% calories from fat and water for 4 weeks prior to treatment. […] The treatments were administered for eight weeks continuously.
Blood samples of the mice in all groups were obtained from tails of the mice at following four and eight weeks of administration. The serum/plasma levels of triglyceride, total cholesterol and cholesterol esters were measured. Following treatment, food was removed for four hours and the animals were euthanized.
Blood was collected into EDTA-coated tubes to analyze plasma lipid and cholesterol profiles. Plasma total cholesterol (TC, Pointe Scientific, Canton, Mich.), free cholesterol (FC, Wako, Richmond, Va.) and triglyceride (TG, Wako, Richmond, Va.) concentrations were measured using enzymatic assays according to manufacturer's instructions. Cholesterol ester (CE) was calculated as the difference between TC and FC.

[7] = tested on: LDL receptor knockout (LDLRKO) mice; test: Example 7: atherosclerotic lesion area and Oil Red O positive area in LDLRKO mice; type: in vivo; settings: eight weeks
Protocol: as §2
To assess atherosclerosis, the circulatory system was perfused following euthanasia with phosphate-buffered saline (PBS) before removing the heart and aorta. The upper one-third of the heart was dissected and embedded in Optimal Cutting Temperature Compound (Sakura Tissue-Tek, Torrance, Calif.), frozen, and stored at −80° C. Blocks were serially cut at 8 μm intervals and stained with hematoxylin and 0.5% Oil Red O (Sigma-Aldrich) to evaluate aortic sinus atherosclerotic intimal area. Atherosclerotic lesion area and Oil Red O positive area were quantified using Image-Pro Plus software (Media Cybemetics, Bethesda, Md.). Whole aorta (from sinotubular junction to iliac bifurcate) was dissected and fixed in 10% formalin, and the adventitia was cleaned. Aortas were opened along the longitudinal axis and pinned onto black silicon elastomer (Rubber-Cal, Santa Ana, Calif.) for the quantification of atherosclerotic lesion area. The percentage of total aortic surface covered with atherosclerotic lesions was quantified by Image-Pro Plus software (Media Cybemetics, Bethesda, Md.) and used to determine the total lesion area.

[8] = tested on: LDL receptor knockout (LDLRKO) mice; test: Example 7: aortic macrophage infiltration (CD68 positive area) in LDLRKO mice; type: in vivo; settings: eight weeks
Protocol: as §2
To assess macrophage infiltration, Sections of aortic sinus were immuno-stained with rat monoclonal antibody against macrophage-specific CD68 (Clone FA11, 1:75, AbD Serotec, Raleigh, N.C.) followed by staining with alkaline phosphatase-conjugated mouse anti-rat (for CD68, 1:50) secondary antibodies (Jackson ImmunoResearch laboratories, West Grove, Pa.). Control slides contain no primary antibody. The CD68-positive areas were analyzed using Image-Pro Plus software (Media Cybemetics, Bethesda, Md.).

C. elegans = test: Lifespan in C. elegans; type: in vivo, Caenorhabditis elegans; settings: leucine 0.5 mM, nicotinic acid 10 nM; basal conditions
Protocol: Eggs were hatched on a starved plate overnight. […] To study lifespan, 50 young adult worms were placed on NGM agar plates seeded with E. coli strain OP-50 (=day 1 of study). All treatments were added with the indicated concentrations to E. coli the agar plates. […] The worms were maintained at 20° C. throughout the duration of the study. Worms were transferred to new plates daily to eliminate progeny. […] The study was continued until the last animal was dead. Data were analyzed via Kaplan-Meier survival curves using Prism 6 (GraphPad Software) and statistical significance was determined by the Log-rank (Mantel-Cox) test.

Sirt1 [9] = settings: 0.5 mM for leucine and 5 μM for HMB; previously shown; cited from earlier work
AMPK [10] = settings: 0.5 mM for leucine and 5 μM for HMB; previously shown; cited from earlier work
[11] = leucine 24 g/kg diet alone, or with nicotinic acid 50 or 250 mg/kg diet, compared with NA 1,000 mg/kg diet
[12] = leucine 24 g/kg diet alone, or with nicotinic acid 50 mg/kg diet, compared with NA 1,000 mg/kg diet

SMILES	circulating level of nicotinic acid or nicotinamide riboside [1]	effect on Sirt1 levels (Sirt1 [2]; C2C12 myotubes, 24 hours, nicotinic acid 10 nM alone or with 0.5 mM leucine)	concentrations of nicotinic acid alone found to exert no effect (Sirt1 [2]; dose-response study, C2C12 cells) [nM]	AMPK activation (P-AMPK/AMPK) (AMPK [3]; differentiated 3T3-L1 adipocytes, 24 hours, nicotinic acid 10 nM, leucine 0.5 mM, resveratrol 200 nM)	concentrations of nicotinic acid alone found to exert no effect (AMPK [3]; dose-response study, 3T3-L1 cells) [nM]	cutaneous vasodilation [4]	cutaneous vasodilation and patient complaints [5]	decrease in plasma total cholesterol ([6]; nicotinic acid 1,000 mg/kg diet added to western diet, p<0.01) [%]	decrease in plasma cholesterol esters ([6]; nicotinic acid 1,000 mg/kg diet, CE calculated as TC minus FC, p<0.002) [%]	decrease in plasma triglycerides ([6]; nicotinic acid 1,000 mg/kg diet, p<0.01) [%]	decrease in atherosclerotic lesion size ([7]; nicotinic acid 1,000 mg/kg diet, relative to western diet alone) [%]	decrease in aortic macrophage infiltration ([8]; nicotinic acid 1,000 mg/kg diet, % CD68 positive area) [%]	effect on lifespan (C. elegans)	effect on plasma cholesterol esters [6, 11]	effect on plasma total cholesterol [6, 11]	effect on lesion (plaque) area [7, 12]	effect on aortic macrophage infiltration [8, 12]	therapeutic effect on these variables when administered alone (Sirt1 [9])	therapeutic effect on these variables when administered alone (AMPK [10])
NC(=O)c1ccc[n+]([C@@H]2O[C@H](CO)[C@@H](O)[C@H]2O)c1 [nicotinamide riboside]	about 10 μM																		
O=C(O)c1cccnc1 [nicotinic acid]	about 10 μM	did not have a significant effect	< 100	no significant effect	< 100	significant higher cutaneous vasodilation	significant higher cutaneous vasodilation and more complaints from the patients	20	28	32	~50	~50	no independent effect						
CC(C)C[C@H](N)C(=O)O [leucine]													no independent effect	no independent effect	no independent effect	exerted an independent effect on plaque area	significant independent effect on reducing macrophage infiltration	no therapeutic effect	no therapeutic effect
